# Like-named read-outs stand apart in the source and are kept apart here.
# What was measured:
# SARS-CoV-2 (FI) = format: cell-based, Severe acute respiratory syndrome coronavirus; details: ATR-002 100 µM
# [1] = system: SARS-CoV-2 SA variant B.1351; format: cell-based, Severe acute respiratory syndrome coronavirus; details: MOI 0.1, 1 and 10, 50, 75 and 100µM, 24 hours
structure (smiles),measurement,setting,value
"O=C(O)c1ccc(F)c(F)c1Nc1ccc(I)cc1Cl [ATR-002, 2-(2-chloro-4-iodophenylamino)-N-3,4-difluoro benzoic acid]",production of progeny viral particles,"SARS-CoV-2 (FI); A549-ACE2/TMPRSS2 cells, MOI of 0.001",reduced the production of progeny viral particles
same,production of progeny viral particles,"SARS-CoV-2 (FI); A549-ACE2/TMPRSS2 cells, MOI: 0.01",did not affect the production of progeny viral particles
same,production of progeny viral particles,"SARS-CoV-2 (FI); Calu-3 cells, MOI of 0.001",reduced the production of progeny viral particles
same,virus yield,[1]; Calu-3 cells,reduction of virus yield
same,virus yield,[1]; Vero cells,reduction of virus yield

# — EP4186500A1, “MEK INHIBITORS FOR THE PREVENTION AND TREATMENT OF LONG COVID SYNDROME” (Atriva Therapeutics GmbH, priority 2021, dated 2023)
